Literature values as cited in patent US12557779B2 (priority 2020, dated 2026).

Molecular target: cannabinoid receptor type 2 (CB2) (Homo sapiens, UniProt P34972)
Sequence (P34972 whole entry, species assumed): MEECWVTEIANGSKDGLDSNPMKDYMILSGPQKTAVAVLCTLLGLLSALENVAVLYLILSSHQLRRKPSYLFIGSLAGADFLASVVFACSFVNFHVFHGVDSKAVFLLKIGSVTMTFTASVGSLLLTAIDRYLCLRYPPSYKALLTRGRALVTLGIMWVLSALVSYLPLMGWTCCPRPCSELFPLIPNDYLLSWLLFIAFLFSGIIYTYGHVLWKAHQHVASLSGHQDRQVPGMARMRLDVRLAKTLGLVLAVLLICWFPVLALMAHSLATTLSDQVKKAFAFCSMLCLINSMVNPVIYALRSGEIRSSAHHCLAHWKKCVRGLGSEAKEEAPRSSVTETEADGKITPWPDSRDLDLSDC

SMILES: C=C(C)[C@@H]1CCC(C)=C[C@H]1c1c(O)cc(CCCCC)cc1O [CBD, cannabidiol]
- affinity for CB2: minimal affinity
